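Dose response: 5 concentrations. Exposure: 48 h. Format: 96-well plates. Endpoint: linear interpolation; highest concentration if not reached. TGI is the concentration that stops growth completely.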

The values that follow come from PubChem BioAssay (NCI).

Test systems include KM12 colon; OVCAR-3 ovarian; A549 NSCLC; OVCAR-8 ovarian; LOX IMVI melanoma; HCT-116 colon; HT29 colon; IGROV1 ovarian; SK-MEL-28 melanoma; HL-60(TB) leukemia; HCT-15 colon; SF-268 CNS; NCI-H522 lung; NCI-H23 lung; A498 renal; HCC-2998 colon; MCF7 breast; SK-OV-3 ovarian; MDA-MB-435; T-47D breast.
Holding throughout (assay): inhibition of tumour cell growth, NCI panel, 48 h

As for `O=C1C[C@@H]2[C@@H](c3ccccc3)[C@@H]3C(=O)c4ccccc4NC(=O)[C@H]3[C@]2(O)c2ccccc2N1`, the TGI in the assay with KM12 colon, in the assay on OVCAR-3 ovarian, with A549 NSCLC, with OVCAR-8 ovarian, with LOX IMVI melanoma and in the assay on HCT-116 colon was more than 100 µM throughout. In addition, the TGI in the assay on HT29 colon, in the assay with IGROV1 ovarian, with SK-MEL-28 melanoma, with HL-60(TB) leukemia, in the assay with HCT-15 colon and with SF-268 CNS was more than 100 µM each time. The TGI with NCI-H522 lung and in the assay on NCI-H23 lung was more than 100 µM each time.

Take `CC(C)(C)n1c(=O)n(-c2ccccc2)n(C(C)(C)C)c1=O`: the TGI with KM12 colon, with OVCAR-3 ovarian, in the assay on A549 NSCLC, with OVCAR-8 ovarian, with A498 renal and in the assay with LOX IMVI melanoma was more than 100 µM in each case. The TGI in the assay with HCT-116 colon, in the assay with HT29 colon, with IGROV1 ovarian, with SK-MEL-28 melanoma, in the assay with HL-60(TB) leukemia and in the assay with HCT-15 colon was more than 100 µM each time. Besides, the TGI in the assay with HCC-2998 colon, in the assay with MCF7 breast, in the assay on SK-OV-3 ovarian and in the assay with NCI-H23 lung was more than 100 µM in each case.

On to `O=C(/C=C/c1ccccc1)c1cc(C(=O)/C=C/c2ccccc2)c(O)cc1O`, for which the TGI is more than 100 µM in the assay on A549 NSCLC; more than 100 µM with OVCAR-8 ovarian; 90.7 µM in the assay on A498 renal; more than 100 µM with LOX IMVI melanoma; more than 100 µM in the assay on HCT-116 colon; more than 100 µM in the assay on HT29 colon. Moreover, the TGI in the assay on IGROV1 ovarian, in the assay on SK-MEL-28 melanoma, with HL-60(TB) leukemia, with MDA-MB-435, in the assay on HCT-15 colon and in the assay on HCC-2998 colon was more than 100 µM in each case. In addition, the TGI with MCF7 breast, in the assay with SK-OV-3 ovarian and with NCI-H23 lung was more than 100 µM in each case.

With `COc1ccc(/C=C2\CCC(C)c3c2nc(N)c(C#N)c3-c2ccc(OC)c(OC)c2)cc1OC` (stereo not given), the TGI with KM12 colon, in the assay with OVCAR-3 ovarian, in the assay on OVCAR-8 ovarian, in the assay on LOX IMVI melanoma, in the assay on HCT-116 colon and with HT29 colon was more than 100 µM throughout. Moreover, the TGI with IGROV1 ovarian, with SK-MEL-28 melanoma, in the assay with HL-60(TB) leukemia, with MDA-MB-435, in the assay on HCT-15 colon and in the assay on SF-268 CNS was more than 100 µM throughout. In addition, the TGI with MCF7 breast was more than 100 µM; with SK-OV-3 ovarian it was more than 100 µM; in the assay on T-47D breast, 6.38 µM; in the assay with NCI-H23 lung, more than 100 µM.

As to `CC(C)=CCC/C(C)=C/Cc1c(O)c(C)cc2c1[nH]c1cc(O)ccc12`, the TGI in the assay with KM12 colon, in the assay with OVCAR-3 ovarian, in the assay on A549 NSCLC, with OVCAR-8 ovarian, in the assay on LOX IMVI melanoma and with HCT-116 colon was more than 25 µM throughout. Also, the TGI in the assay on HT29 colon, with IGROV1 ovarian, in the assay on SK-MEL-28 melanoma, in the assay on HL-60(TB) leukemia, with HCT-15 colon and in the assay on HCC-2998 colon was more than 25 µM in each case. For the same compound, the TGI with SF-268 CNS, in the assay on NCI-H522 lung and in the assay with SK-OV-3 ovarian was more than 25 µM each time.

Take `CN(C(=S)Cc1ccc(Cl)c(Cl)c1)C1CCCC[C@@H]1N1CCCC1` (stereo not given in full): the TGI was more than 100 µM with KM12 colon; more than 100 µM in the assay with OVCAR-3 ovarian; more than 100 µM in the assay on A549 NSCLC; 60.6 µM in the assay on A498 renal; more than 100 µM with HCT-116 colon; 45.5 µM in the assay on HT29 colon. The TGI with SK-MEL-28 melanoma is 31.6 µM; in the assay with HL-60(TB) leukemia, more than 100 µM; in the assay with MDA-MB-435, 87.5 µM; in the assay with HCT-15 colon it was more than 100 µM; with SK-OV-3 ovarian, more than 100 µM; with T-47D breast it was more than 100 µM. The compound also registered a TGI in the assay on NCI-H23 lung of more than 100 µM.

For the compound `C=C1C2CC3CCC2C(OC(=O)c2ccccc2C(=O)O)C13` (stereo not given), the TGI with KM12 colon, in the assay on OVCAR-3 ovarian, in the assay with A549 NSCLC, in the assay with OVCAR-8 ovarian, in the assay on A498 renal and in the assay on LOX IMVI melanoma was more than 100 µM throughout. Also, the TGI in the assay with HCT-116 colon, with HT29 colon, in the assay with IGROV1 ovarian, in the assay with SK-MEL-28 melanoma, in the assay with HL-60(TB) leukemia and in the assay on MDA-MB-435 was more than 100 µM in each case. In addition, the TGI in the assay with HCT-15 colon, with HCC-2998 colon, in the assay with SF-268 CNS, in the assay on NCI-H522 lung, in the assay on SK-OV-3 ovarian and in the assay on T-47D breast was more than 100 µM throughout. The TGI in the assay on NCI-H23 lung is more than 100 µM.

As for `CN(/N=C/C=N/N(C)C1=NCCCN1)C1=NCCCN1`, the TGI with KM12 colon, in the assay on OVCAR-3 ovarian, in the assay with A549 NSCLC, in the assay with OVCAR-8 ovarian, in the assay on LOX IMVI melanoma and with HCT-116 colon was more than 100 µM throughout. Besides, the TGI in the assay on HT29 colon, with IGROV1 ovarian, with SK-MEL-28 melanoma, in the assay on MDA-MB-435, in the assay on HCT-15 colon and in the assay with HCC-2998 colon was more than 100 µM throughout. The TGI in the assay on SF-268 CNS, in the assay with NCI-H522 lung, in the assay with MCF7 breast, in the assay on SK-OV-3 ovarian and with NCI-H23 lung was more than 100 µM throughout.

With `Cc1cc(S(=O)(=O)NC2=NCCCN2)c(S)cc1Cl`, the TGI in the assay on KM12 colon is more than 100 µM; in the assay with OVCAR-3 ovarian, more than 100 µM; with A549 NSCLC, 53.9 µM; with OVCAR-8 ovarian, 67.6 µM; in the assay with A498 renal, more than 100 µM; in the assay with LOX IMVI melanoma, 42.6 µM. For the same compound, the TGI in the assay with HCT-116 colon was 94.1 µM; in the assay with HT29 colon it was 49.6 µM; in the assay on IGROV1 ovarian it was more than 100 µM; in the assay with SK-MEL-28 melanoma it was more than 100 µM; in the assay on HL-60(TB) leukemia, 45.9 µM; with MDA-MB-435, 54.7 µM. The TGI was more than 100 µM in the assay with HCT-15 colon; more than 100 µM in the assay with HCC-2998 colon; more than 100 µM in the assay with SF-268 CNS; 62.8 µM in the assay on NCI-H522 lung; more than 100 µM in the assay with SK-OV-3 ovarian; more than 100 µM with T-47D breast.

With `COc1ccc(CCc2ccc3c(c2)OCO3)cc1`, the TGI with KM12 colon, in the assay on OVCAR-3 ovarian, with A549 NSCLC, with OVCAR-8 ovarian, in the assay on A498 renal and in the assay on LOX IMVI melanoma was more than 100 µM throughout. Besides, the TGI is more than 100 µM in the assay with HCT-116 colon; more than 100 µM with HT29 colon; more than 100 µM in the assay on IGROV1 ovarian; more than 100 µM with SK-MEL-28 melanoma; more than 100 µM in the assay with HL-60(TB) leukemia; 42.6 µM with MDA-MB-435. The TGI with HCT-15 colon, in the assay on HCC-2998 colon, in the assay with SF-268 CNS, in the assay on NCI-H522 lung, in the assay with MCF7 breast and in the assay with SK-OV-3 ovarian was more than 100 µM in each case. Moreover, the TGI in the assay on NCI-H23 lung is more than 100 µM.

On to `O=C(Cn1c2c(c3ccccc31)CCCC2)N1CCCCC1`, for which the TGI with OVCAR-3 ovarian, in the assay with A549 NSCLC, with OVCAR-8 ovarian, with LOX IMVI melanoma, with HCT-116 colon and in the assay on HT29 colon was more than 100 µM each time. Moreover, the TGI with IGROV1 ovarian, in the assay on SK-MEL-28 melanoma, in the assay on HL-60(TB) leukemia, with MDA-MB-435, with HCT-15 colon and in the assay with HCC-2998 colon was more than 100 µM each time. Further, the TGI in the assay with MCF7 breast, with SK-OV-3 ovarian and with NCI-H23 lung was more than 100 µM throughout.

With `Cc1ccc(Nc2nc(=O)c3c([nH]c4ccccc43)s2)cc1`, the TGI came to 16.2 µM with KM12 colon; 27.3 µM in the assay on OVCAR-3 ovarian; 25.1 µM in the assay on A549 NSCLC; 28.7 µM in the assay with OVCAR-8 ovarian; 37.4 µM with A498 renal; 27.1 µM in the assay with LOX IMVI melanoma. Moreover, the TGI with HT29 colon is 23.2 µM; in the assay on IGROV1 ovarian, 35.1 µM; in the assay with SK-MEL-28 melanoma, more than 100 µM; with HL-60(TB) leukemia it was 36.5 µM; with MDA-MB-435, 7.4 µM; in the assay with HCT-15 colon it was 23.1 µM. The TGI in the assay on SF-268 CNS is 35.6 µM; in the assay with NCI-H522 lung, 32.4 µM; in the assay with SK-OV-3 ovarian, more than 100 µM; in the assay on T-47D breast, 43.7 µM.

As for `CC(C)OC(=O)C1(C(C)C)CCc2ccc(C(=O)CCC(=O)O)cc21` (stereo not given), the TGI in the assay with KM12 colon, in the assay on A549 NSCLC, in the assay on OVCAR-8 ovarian, in the assay with LOX IMVI melanoma, in the assay on HCT-116 colon and with HT29 colon was more than 100 µM throughout. Also, the TGI with IGROV1 ovarian, with SK-MEL-28 melanoma, with HL-60(TB) leukemia, with HCT-15 colon, with HCC-2998 colon and in the assay with SF-268 CNS was more than 100 µM each time. Also, the TGI in the assay on NCI-H522 lung, with MCF7 breast, with SK-OV-3 ovarian, with T-47D breast and with NCI-H23 lung was more than 100 µM throughout.
